In patent publication US10730830B2, “Tetrahydronaphthalene derivative” (ONO PHARMACEUTICAL CO., LTD., priority 2016, dated 2020):
Counter-ions that a name gives are not always drawn.

Tests used:
human S1P5 (EDG-8) [1] = target: T1, human S1P5 (EDG-8) (Homo sapiens (Human), UniProt Q9H228); experiment: Inhibition of binding of [33P]-S1P to S1P5 (EDG-8), CHO cell membrane fractions; settings: [33P]-S1P displacement, CHO membranes overexpressing human S1P5
Description: (§1) Biological Experimental Example 1: Measurement of the Inhibitory Action of the Compound of the Present Invention on Binding of [^33P]-S1P to S1P5 (EDG-8)
(§2) A reaction was carried out in a 96-well microplate by using membrane fractions of Chinese hamster ovary (CHO) cells each of which was made to overexpress human S1P1 (EDG-1) or human S1P5 gene respectively, in an amount of the membrane fraction of 1 mg protein/mL. To each of the wells, 100 μL of a vehicle (DMSO) solution or a two-fold concentration-ligand solution each of which was diluted with Binding Buffer (50 mmol/L, Tris pH 7.5, 5 mmol/L, MgCl2, 0.5% BSA and Complete EDTA free (1 tablet/50 mL)), and 50 μL of 0.16 nmol/L [^33P]-S1P (manufactured by American Radiolabeled Chemicals, Inc.) diluted with Binding Buffer were added. Thereafter, the membrane fraction solutions (50 μL) was added to the wells and the reaction was carried out at room temperature for 60 minutes. After the reaction, suction filtration was carried out by using a 96-well UNIFILTER, and the 96-well microplate was washed with Wash Buffer (50 mmol/L, Tris pH 7.5, 0.5% BSA) ([…]), and thereafter, was dried at 60° C. for 45 minutes. MicroScint (trade name) 20 (50 μL/well) was added and the plate was covered with TopSeal-A, and thereafter, the radioactivity was measured by using TopCount (manufactured by PerkinElmer Inc.).

human S1P1 (EDG-1) = human S1P1 (EDG-1) (Homo sapiens (Human), UniProt P21453); experiment: Inhibition of binding of [33P]-S1P to S1P1 (EDG-1), CHO cell membrane fractions; settings: [33P]-S1P displacement, CHO membranes overexpressing human S1P1
Sequence of human S1P1 (EDG-1) (P21453 whole entry): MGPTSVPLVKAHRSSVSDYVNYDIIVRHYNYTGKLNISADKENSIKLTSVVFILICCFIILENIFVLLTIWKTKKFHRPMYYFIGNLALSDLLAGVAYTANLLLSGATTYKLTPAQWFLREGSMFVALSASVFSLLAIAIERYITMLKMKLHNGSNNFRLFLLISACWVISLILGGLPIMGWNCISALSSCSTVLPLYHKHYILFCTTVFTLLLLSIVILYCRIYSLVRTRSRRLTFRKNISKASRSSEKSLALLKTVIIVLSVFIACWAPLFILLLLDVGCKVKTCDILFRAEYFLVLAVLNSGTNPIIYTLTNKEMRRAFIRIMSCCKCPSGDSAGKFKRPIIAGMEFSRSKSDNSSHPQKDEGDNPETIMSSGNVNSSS
Description: as §1, §2

human S1P5 (EDG-8) [2] = target: T1, human S1P5 (EDG-8); experiment: S1P5 receptor agonist activity by monitoring intracellular cyclic AMP in CHO cells overexpressing human S1P5; format: cell-based; settings: cAMP, forskolin-stimulated CHO cells overexpressing human S1P5
Description: Biological Example 2: Evaluation of S1P5 Receptor Agonist Activities of the Compound of the Present Invention by Monitoring the Concentration of Produced Intracellular Cyclic AMP
CHO cells which were made to overexpress human S1P5 (EDG-8) gene were cultured in Ham's F12 Medium (manufactured by Gibco-BRL) containing 10% FBS (fetal bovine serum), penicillin/streptomycin and geneticin (0.25 mg/mL). The medium was removed from the cultured cells, the cultured cells were washed once with phosphate-buffered saline, and the cultured cells were treated with a vehicle (DMSO) solution or a compound solution each of which was diluted with Buffer (Hanks' balanced salt solution containing 20 mmol/L HEPES, 0.1 or 0.2% BSA, 1 mmol/L IBMX and 5 μmol/L forskolin) at 37° C. for 30 minutes. Thereafter, the cultured cells were washed once with phosphate-buffered saline, lysis of the cells, and the concentration of cyclic AMP in the cell lysate were measured by using cAMP Assay Kit (Cisbio Bioassays).

T1 sequence (Q9H228 whole entry): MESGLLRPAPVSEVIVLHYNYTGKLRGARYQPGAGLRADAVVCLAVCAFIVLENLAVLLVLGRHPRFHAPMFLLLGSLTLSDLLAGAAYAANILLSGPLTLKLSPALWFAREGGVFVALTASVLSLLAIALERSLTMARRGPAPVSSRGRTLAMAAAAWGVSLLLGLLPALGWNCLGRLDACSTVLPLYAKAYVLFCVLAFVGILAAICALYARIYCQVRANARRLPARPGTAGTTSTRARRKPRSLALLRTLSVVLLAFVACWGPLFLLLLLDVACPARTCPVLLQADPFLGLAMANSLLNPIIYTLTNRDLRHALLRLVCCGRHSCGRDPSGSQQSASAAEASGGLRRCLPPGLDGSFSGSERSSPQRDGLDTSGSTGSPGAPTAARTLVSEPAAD

Row | IC50 (human S1P5 (EDG-8) [1]) | IC50 (human S1P1 (EDG-1)) | SMILES | EC50 (human S1P5 (EDG-8) [2])
1 | 1 to 100 nM | > 10000 nM | O=C(O)C1CN(C2CCc3cccc(OCCc4cccc5ccccc45)c3C2)C1 (single isomer, unassigned; (+)) [Example 51 (2), (+)-1-{8-[2-(1-Naphthyl)ethoxy]-1,2,3,4-tetrahydro-2-naphthalenyl}-3-azetidinecarboxylic Acid] | –
2 | 1 to 100 nM | > 10000 nM | O=C(O)CCCN1CCc2cccc(OCCCCCc3ccccc3)c2CC1 [Example 18 (24), 4-{6-[(5-Phenylpentyl)oxy]-1,2,4,5-tetrahydro-3H-3-benzazepin-3-yl}butanoic Acid] | –
3 | 1 to 100 nM | > 10000 nM | Cc1ccc2c(c1OCCCc1ccccc1)CCN(CCCC(=O)O)CC2 [Example 29, 4-[7-Methyl-6-(3-phenylpropoxy)-1,2,4,5-tetrahydro-3H-3-benzazepin-3-yl]butanoic Acid] | –
4 | 100 to 1000 nM | > 30000 nM | O=C(O)C1CN(C2Cc3cccc(OCCc4ccccc4)c3C2)C1 (stereo not drawn) [Example 48, 1-[4-(2-Phenylethoxy)-2,3-dihydro-1H-inden-2-yl]-3-azetidinecarboxylic Acid] | –
5 | 1000 to 3000 nM | > 30000 nM | O=C(O)CCCCN1CCCc2c(cccc2OC/C=C/c2ccc(C(F)(F)F)cc2)C1 [Example 49, 5-[6-({(2E)-3-[4-(Trifluoromethyl)phenyl]-2-propen-1-yl}oxy)-1,3,4,5-tetrahydro-2H-2-benzazepin-2-yl]pentanoic Acid] | –
6 | 1 to 100 nM | > 10000 nM | O=C(O)C1CC(N2CCc3cccc(OCCc4cccc5ccccc45)c3CC2)C1 (single isomer, unassigned) [Example 23 (8), 3-{6-[2-(1-Naphthyl)ethoxy]-1,2,4,5-tetrahydro-3H-3-benzazepin-3-yl}cyclobutanecarboxylic Acid] | –
7 | 100 to 1000 nM | > 10000 nM | CCCCCCCCOc1cccc2c1CCN(CCCC(=O)O)CC2 [Example 18 (32), 4-[6-(Octyloxy)-1,2,4,5-tetrahydro-3H-3-benzazepin-3-yl]butanoic Acid] | –
8 | 100 to 1000 nM | > 10000 nM | O=C(O)CCCN1CCc2cccc(OCCc3ccccc3)c2CC1 [Example 18 (22), 4-[6-(2-Phenylethoxy)-1,2,4,5-tetrahydro-3H-3-benzazepin-3-yl]butanoic Acid] | –
9 | 100 to 1000 nM | > 10000 nM | O=C(O)CCCN1CCc2cccc(OCCCC3CCOCC3)c2CC1 [Example 18 (42), 4-{6-[3-(tetrahydro-2H-pyran-4-yl)propoxy]-1,2,4,5-tetrahydro-3H-3-benzazepin-3-yl}butanoic Acid] | –
10 | 1 to 100 nM | > 10000 nM | O=C(O)C1CN(C2CCc3cccc(OCCc4cccc5ccccc45)c3C2)C1 (single isomer, unassigned; (-)) [Example 51 (1), (−)-1-{8-[2-(1-Naphthyl)ethoxy]-1,2,3,4-tetrahydro-2-naphthalenyl}-3-azetidinecarboxylic Acid] | –
11 | 100 to 1000 nM | > 10000 nM | O=C(O)CCCN1CCc2cccc(OCCC3Cc4ccccc43)c2CC1 (stereo not drawn) [Example 18 (26), 4-{6-[2-(Bicyclo[4.2.0]octa-1,3,5-trien-7-yl)ethoxy]-1,2,4,5-tetrahydro-3H-3-benzazepin-3-yl}butanoic Acid] | –
12 | 100 to 1000 nM | > 10000 nM | O=C(O)CC1(CN2CCc3cccc(OCCc4cccc5ccccc45)c3CC2)CC1 [Example 37, [1-({6-[2-(1-Naphthyl)ethoxy]-1,2,4,5-tetrahydro-3H-3-benzazepin-3-yl}methyl)cyclopropyl]acetic Acid] | –

Second part, the compound before the results:

Row | SMILES | IC50 (human S1P5 (EDG-8) [1]) | IC50 (human S1P1 (EDG-1)) | EC50 (human S1P5 (EDG-8) [2])
13 | O=C(O)CCCN1CCc2c(cccc2OC/C=C/c2ccc(OC(F)F)cc2)C1 [Example 18 (4), 4-[5-({(2E)-3-[4-(Difluoromethoxy)phenyl]-2-propen-1-yl}oxy)-3,4-dihydro-2(1H)-isoquinolinyl]butanoic Acid] | 1000 to 3000 nM | > 30000 nM | –
14 | O=C(O)CCCN1CCc2cccc(OCC3CCc4ccccc4C3)c2CC1 (stereo not drawn) [Example 18 (16), 4-[6-(1,2,3,4-Tetrahydro-2-naphthalenylmethoxy)-1,2,4,5-tetrahydro-3H-3-benzazepin-3-yl]butanoic Acid] | 100 to 1000 nM | > 10000 nM | –
15 | O=C(O)C1CN(C2CCc3cccc(OCCCc4ccccc4)c3C2)C1 (stereo not drawn) [Example 3 (4), 1-[8-(3-Phenylpropoxy)-1,2,3,4-tetrahydro-2-naphthalenyl]-3-azetidinecarboxylic Acid] | 1 to 100 nM | > 10000 nM | –
16 | O=C(O)C1CN(C2CCc3cccc(OCCc4cccc5ccccc45)c3C2)C1 (stereo not drawn) [Example 3 (5), 1-{8-[2-(1-Naphthyl)ethoxy]-1,2,3,4-tetrahydro-2-naphthalenyl}-3-azetidinecarboxylic Acid] | – | – | 1 to 100 nM
17 | CC(C)c1ccc(/C=C/COc2cccc3c2CCN(CCCC(=O)O)C3)cc1 [Example 18 (3), 4-[5-{[(2E)-3-(4-Isopropylphenyl)-2-propen-1-yl]oxy}-3,4-dihydro-2(1H)-isoquinolinyl]butanoic Acid] | 1000 to 3000 nM | > 30000 nM | –
18 | O=C(O)CCCN1CCc2cccc(OCCOc3ccc(C(F)(F)F)cc3)c2CC1 [Example 18 (10), 4-(6-{2-[4-(Trifluoromethyl)phenoxy]ethoxy}-1,2,4,5-tetrahydro-3H-3-benzazepin-3-yl)butanoic Acid] | 1 to 100 nM | > 10000 nM | –
19 | O=C(O)CCCN1CCc2c(cccc2OCCc2ccc3ccccc3c2)C1 [Example 18 (1), 4-{5-[2-(2-naphthyl)ethoxy]-3,4-dihydro-2(1H)-isoquinolinyl}butanoic Acid trifluoroacetate] | 1000 to 3000 nM | > 30000 nM | –
20 | O=C(O)CCCN1CCc2cccc(OC/C=C/c3ccc(C(F)(F)F)cc3)c2C1 [Example 18 (2), 4-[8-({(2E)-3-[4-(Trifluoromethyl)phenyl]-2-propen-1-yl}oxy)-3,4-dihydro-2(1H)-isoquinolinyl]butanoic Acid trifluoroacetate] | 1000 to 3000 nM | > 30000 nM | –
21 | CN(CCC(=O)O)C1CCc2cccc(OC/C=C/c3ccc(C(F)(F)F)cc3)c2C1 (stereo not drawn) [Example 3 (3), 3-{Methyl[8-({(2E)-3-[4-(trifluoromethyl)phenyl]-2-propen-1-yl}loxy)-1,2,3,4-tetrahydro-2-naphthalenyl]amino}propanoic Acid] | 100 to 1000 nM | > 30000 nM | –
22 | O=C(O)CCCN1CCc2cccc(OCCCc3ccccc3)c2CC1 [Example 18 (11), 4-[6-(3-Phenylpropoxy)-1,2,4,5-tetrahydro-3H-3-benzazepin-3-yl]butanoic Acid] | – | – | 1 to 100 nM
23 | O=C(O)CCCN1CCc2cccc(OCCCC3CCCCC3)c2CC1 [Example 18 (14), 4-[6-(3-Cyclohexylpropoxy)-1,2,4,5-tetrahydro-3H-3-benzazepin-3-yl]butanoic Acid] | 100 to 1000 nM | > 10000 nM | –
24 | O=C(O)CCN1CCc2cccc(OC/C=C/c3ccc(C(F)(F)F)cc3)c2CC1 [Example 18 (8), 3-[6-({(2E)-3-[4-(Trifluoromethyl)phenyl]-2-propen-1-yl}oxy)-1,2,4,5-tetrahydro-3H-3-benzazepin-3-yl]propanoic Acid] | 100 to 1000 nM | > 10000 nM | –
25 | O=C(O)C1CCN(C2CCc3c(cccc3OC/C=C/c3ccc(C(F)(F)F)cc3)C2)C1 (stereo not drawn) [Example 3 (1), 1-[5-({(2E)-3-[4-(Trifluoromethyl)phenyl]-2-propen-1-yl}oxy)-1,2,3,4-tetrahydro-2-naphthalenyl]-3-pyrrolidinecarboxylic Acid] | 1000 to 3000 nM | > 30000 nM | –
26 | O=C(O)CCCN1CCc2cccc(OCCc3cccc4ccccc34)c2CC1 [Example 18 (18), 4-{6-[2-(1-Naphthyl)ethoxy]-1,2,4,5-tetrahydro-3H-3-benzazepin-3-yl}butanoic Acid] | 1 to 100 nM | > 10000 nM | 1 to 100 nM
